Experimental data reported in patent US10059702B2, “Inhibitors of LC3/ATG3 interaction and their use in the treatment of cancer” (THE JOHNS HOPKINS UNIVERSITY, priority 2014, dated 2018).

Assays:
[1] = test system: MCF-7, a breast cancer cell line; assay: Impedance assay (xCELLigence, Cell Index), MCF-7; type: cell-based; settings: for effect on cell impedance: MCF-7, 100 μM to 1.5 μM
Protocol: (§1) PTA or Compound 10 were added ranging from 100 μM to 1.5 μM to the cells after […]. The apparent IC50 after 72 hours of drug treatment was calculated and is shown in the inset of each graph of the triplicate impedance measurement per concentration. The DMSO vehicle control is shown as dark red line.
(§2) MCF-7 cells were maintained in RPMI media supplemented with 10% fetal bovine serum. HepG2 cells were maintained in Dulbecco's modified Eagle medium (DMEM, Invitrogen) media supplemented with 10% fetal bovine serum and 1×MEM non-essential amino acids. For cytotoxicity experiments, cells were plated on T-75 flasks and grown until they reached at 70-80% confluency.
(§3) Cell proliferation was monitored in real-time cell electronic sensing (xCELLigence System, Acea Biosciences) through gold microelectrode arrays on the bottom of 96 E-Plates. 100 μl of corresponding culture media was added into each well of 96 E-Plates, which inserted into the station and background measurement was taken. Then, cells (5,000 cells/well in 100 μl) were seeded into 96 E-Plates containing 100 μl medium/well. After about 20 hours, 200 μl medium was discarded and replaced with 100 μl of fresh medium containing indicated amounts of compounds for each well. In the xCELLigence System the changes in cell number are detected as modifications in the measurement of electrical impedance and are represented as Cell Index (CI).
(§4) To define the range of metastasizing cancer cell lines susceptible to PTA derivatives of the present invention, we can use the HUVEC electrical-impedance assay. Invasive tumor cell lines are monitored through electric impedance measurements of human umbilical vein endothelial cells (HUVEC) monolayers in the presence of PTA derivatives. […] The invasion potential of the tumor cell is measured by the change in cell impedance as the HUVEC monolayer junctions are compromised by the invading tumor cells. Cells can be monitored over multiple days while the real-time impedance is recorded. […]

[2] = test system: HepG2, a hepatocarcinoma cell line; assay: Impedance assay (xCELLigence, Cell Index), HepG2; type: cell-based; settings: for effect on cell impedance: HepG2, 100 μM to 1.5 μM
Protocol: as §1, §2, §3, §4

HCT8 colon cancer cells = assay: PTA-susceptibility of HCT8 colon cancer cells: microscopy and anti-LC3 Western blot; type: cell-based, human; settings: 24 hours
Source text: FIG. 4 provides an anti-LC3 Western blot of PTA treated HCT8 colon cancer cells with corresponding Coomassie stained 4-20% SDS-PAGE. The arrows indicate the band used for quantification with ImageJ. The SDS gel indicates approximate equal amounts were loaded per lane.
To be functional in autophagy processes, hLC3 undergoes two critical activation processes. First a C-terminal glycine has to be exposed through proteolytic cleavage by the […] protease Atg4. Second, a lipid, phosphatidylethanolamine (PE), is conjugated to the C-terminal glycine residue resulting in hLC3-PE (hLC3-II). The inventors previously discovered 4-formyl-N-(4-pyridin-2-yl-1,3-thiazol-2-yl)benzamide (PTA) as an autophagy inhibitor in their studies on the plasmodial system in search of protein-protein interaction inhibitors of the PfAtg8-PfAtg3 interaction, the homologous system in the malaria parasite. The lipidated form of either Atg8 or hLC3 (hLC3-II) can be resolved from the unlipidated form (hLC3-I) using SDS-PAGE due to their different migration speeds. Specific commercial antibodies for hLC3 detection were used in these studies to quantify the two species via Western blot in treated and untreated cancer cell lines.
We used a DMSO-vehicle control. All experiments were carried out at 1% final DMSO concentration for 24 hours at 37° C. and 5% CO2. […] The DMSO control sample was trypsinized to detach the cells from the culture dish. All cells were collected and spun down before resuspending them in SDS-loading dye for SDS-PAGE and Western blot analysis. Commercial monoclonal antibodies directed against hLC3 (D3U4C Rabbit mAB) and GAPDH (14C10 Rabbit mAB) as loading control were used. The Western blot clearly distinguishes between the un-lipidated (hLC3-I) and lipidated (hLC3-II) form by their migration speed in the SDS-gel (FIG. 4). The lipidated form migrates faster in an SDS-gel due to its additional negative charge from the conjugated phospholipid. […] 0.5% DMSO will be used as a vehicle control and 33 nM Wortmannin as a positive control for autophagy inhibition.

PfAtg8 [3] = target: T1, PfAtg8 (Plasmodium falciparum, UniProt Q8IJK2); assay: SPR binding of purified PfAtg8 to PTA immobilized on an SPR chip; settings: comparison of hLC3 with PfAtg8
T1 sequence (Q8IJK2 1-124): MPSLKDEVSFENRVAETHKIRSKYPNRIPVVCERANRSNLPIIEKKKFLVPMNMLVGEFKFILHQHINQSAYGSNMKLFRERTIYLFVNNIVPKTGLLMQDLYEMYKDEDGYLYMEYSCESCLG
Source text: (§5) FIGS. 2A-2C depict the properties of the PTA-binding site on hLC3. 2A) Energy-minimized docking pose of PTA to hLC3. The pyridinylthiazolamine ringsystem predominantly binds to the W-site of hLC3. 2B) Conservation of amino acids between hLC3 and Plasmodium Atg8. Shown in yellow sticks is the bound peptide of Atg3. The W-Site is highly conserved, whereas the L-site is less conserved, explaining the lower affinity of hLC3 to PTA (FIGS. 2A, 2B adapted from Hain et al. 2013). 2C) Direct binding interaction of purified hLC3 or PfAtg8 to PTA immobilized on a SPR chip to determine their respective affinities.
(§6) In comparing the sequence conservation of this W-/L-site between PfAtg8 and hLC3, it is apparent that the W-site has maintained a higher degree of conservation, as indicated by the magenta patch in FIG. 2B. To test whether or not the W-/L-site of Atg8 was indeed the interaction area to which our small molecules bind, we performed SPR binding studies with different Atg8-homologs, essentially mimicking mutational studies in the environment of the W-/L-site. This allowed us to explore the key features of the binding site in a manner that was much more efficient than introducing multiple single point mutations for each protein of interest at a time.
(§7) SPR studies were performed on PfAtg8 and hLC3 binding to the PTA molecule immobilized on an SPR chip. […]

PfAtg8 [4] = target: PfAtg8 (Plasmodium falciparum, UniProt Q8IJK2); assay: Surface plasmon resonance (SPR): direct binding of purified PfAtg8 to PTA immobilized on an SPR chip; settings: W-/L-site, FIG. 3, read-out: PfAtg8 Kd (binding affinity to PTA)
Source text: as §5
To maintain the identical view, residue differences were painted onto the PfAtg8 structure. Residues in the proximity of the W-/L-site of hLC3 lead to lower binding affinities of our current molecule targeting the Atg8-Atg3 interaction.
as §6, with “This allowed us to explore the key features of the binding site in a manner that was much more efficient than introducing multiple single point mutations for each protein of interest at a time.” left out

HC-04 liver cells = assay: Cytotoxicity in HC-04 liver cells; type: cell-based; settings: 30 μM PTA for 96 hours
hLC3 = assay: SPR binding of purified hLC3 to PTA immobilized on an SPR chip; parameters: species or system human; settings: read-out: affinity of hLC3 to PTA on the SPR chip
Source text: as §5, §6, §7

[5] = test system: hLC3 with hAtg3 interaction; assay: hLC3/hAtg3 protein-protein interaction in vitro; type: binding, human
Protocol: Our structural understanding of how the hLC3 binds the PTA-scaffold combined with surface plasmon resonance (SPR)-interaction studies, has enabled the inventors to design the PTA-analogs of the present invention with low Koff-rates. […] These new PTA-analogs are tested in SPR-based assays with purified recombinant hLC3 and hAtg3 to assess their ability to prevent the protein-protein interaction. Newly emerging molecules from our efforts are subjected to dose-dependent cell based screening with our cancer line collection.
About 120 PTA-homologs were identified in the PubChem database (pubchem.ncbi.nlm.nih.gov) that are available through commercial vendors. In a first assessment to determine which homologs to focus on initially, virtual library screening was performed with the known hLC3 structures (1UGM, 3ECI, 3WAL, 3WAO). Comparing the docking results from different structures of hLC3 allowed us to assemble a short list of nine high priority compounds (compounds 1-9). […] Two complementary assays will be utilized, the first assesses the small molecule's ability to block the protein-protein interaction of hLC3 with hAtg3. The second assay is used to directly measure the binding of the small molecule to immobilized hLC3 on an SPR chip, which will allow us to draw conclusions about the physical interaction between the two binding partners.

SMILES | effect on cell impedance [1] | effect on cell impedance [2] | cell appearance by microscopy at lowest concentration (HCT8 colon cancer cells; HCT8, 6.75 μM PTA) | hLC3 lipidation (hLC3-I / hLC3-II bands) in Western blot (HCT8 colon cancer cells; HCT8, PTA treated) | cell appearance by microscopy (HCT8 colon cancer cells; HCT8, about 100 μM to 6.25 μM PTA, 1% DMSO) | binding affinity to immobilized PTA, hLC3 versus PfAtg8 (PfAtg8 [3]) | Kd (PfAtg8 [4]) | IC50 ([1]; MCF7a, MCF-7, impedance, 100 μM to 1.5 μM, 72 hours, read-out: apparent IC50 after 72 hours of drug treatment) | cytotoxic effect / tolerability (HC-04 liver cells) | Kd (hLC3) | IC50 ([2]; Homo sapiens, HepG2, impedance, 100 μM to 1.5 μM, 72 hours, read-out: apparent IC50 after 72 hours of drug treatment) | prevention of protein-protein interaction of hLC3 with hAtg3 [5]
COC(OC)c1ccc(C(=O)Nc2ncc(-c3ccccn3)s2)cc1 [Compound 10] | concentration dependent effect | concentration dependent effect | – | – | – | – | – | – | – | – | – | –
O=Cc1ccc(C(=O)Nc2nc(-c3ccccn3)cs2)cc1 [PTA, 4-formyl-N-(4-pyridin-2-yl-1,3-thiazol-2-yl)benzamide] | concentration dependent effect | concentration dependent effect | a few patches of attached cells still visible | accumulation of the slower migrating hLC3-I band is visible | detached, blebbing cells with a concentration dependent phenotype | decrease of binding affinity for hLC3 versus PfAtg8 | 0.54 µM | ~18 µM | well tolerated | 18 µM | ~18 µM | specifically prevents the protein-protein interaction of hLC3 with hAtg3
